Test results published in patent US5877013A, “Rhodosporidium D-amino acid oxidase” (Food Industry Research and Development Institute, priority 1997, dated 1999).
Blank lines part the entries; values can stand above or below the molecule they belong to.

Legend:
R. toruloides DAO [1] = target: T1, R. toruloides DAO (Rhodotorula toruloides, UniProt P80324)
T1 sequence (P80324 25-368): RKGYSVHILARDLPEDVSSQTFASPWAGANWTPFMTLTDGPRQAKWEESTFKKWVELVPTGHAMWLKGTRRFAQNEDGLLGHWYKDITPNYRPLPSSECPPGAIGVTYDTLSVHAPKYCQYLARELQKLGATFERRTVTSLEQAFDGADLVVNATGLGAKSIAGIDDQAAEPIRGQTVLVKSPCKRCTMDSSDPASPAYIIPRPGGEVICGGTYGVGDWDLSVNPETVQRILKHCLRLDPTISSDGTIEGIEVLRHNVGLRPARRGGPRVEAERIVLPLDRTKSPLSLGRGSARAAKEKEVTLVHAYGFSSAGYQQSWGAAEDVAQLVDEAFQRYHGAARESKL

R. toruloides DAO [2] = target: T1, R. toruloides DAO; assay: biochemical
R. toruloides DAO [3] = target: T1, R. toruloides DAO; assay: activity of purified DAO on amino acid substrates and Ceph C (relative activity, apparent Km); assay type: biochemical; design: made in house; host or cells: R. toruloides cells (native source, not recombinant); conditions: for activity of the purified DAO on substrate / relative activity of the purified DAO on substrate: purified R. toruloides DAO
[4] = substrate: CSCC[C@@H](N)C(=O)O; assay: purified protein, by the assay type; conditions: other: purified R. toruloides DAO
[5] = substrate: C[C@@H](N)C(=O)O; assay: purified protein, by the assay type; conditions: other: purified R. toruloides DAO
[6] = substrate: N[C@H](CO)C(=O)O; assay: purified protein, by the assay type; assay type: biochemical; conditions: other: purified R. toruloides DAO
[7] = substrate: N[C@H](Cc1c[nH]c2ccccc12)C(=O)O; assay: purified protein, by the assay type; assay type: biochemical; conditions: other: purified R. toruloides DAO
[8] = substrate: [H][C@]12SCC(COC(C)=O)=C(C(=O)O)N1C(=O)[C@H]2NC(=O)CCC[C@@H](N)C(=O)O; assay: purified protein, by the assay type; assay type: biochemical; conditions: other: purified R. toruloides DAO

enzyme inhibited in the presence of aromatic acid (R. toruloides DAO [1]): 72%
Ki (R. toruloides DAO [2]): 300 µM
Molecule: Nc1ccc(C(=O)O)cc1 [p-aminobenzoic acid]

Molecule: O=C(O)[C@@H]1CCCN1 [L-proline]
activity of the purified DAO on substrate (R. toruloides DAO [3]): No activity

Molecule: O=C(O)c1cccnc1 [nicotinic acid]
enzyme inhibited in the presence of aromatic acid (R. toruloides DAO [1]): 21%

Molecule: CC(=O)OCC1=C(C(=O)O)N2C(=O)[C@@H](NC(=O)CCC[C@@H](N)C(=O)O)[C@H]2SC1 [Ceph C, cephalosporin C]
activity on Ceph C as compared with activity against D-alanine (R. toruloides DAO [3]; purified DAO, SEQ ID NO: 3): 95%

Molecule: NCCCC[C@@H](N)C(=O)O [D-lysine]
relative activity of the purified DAO on substrate (R. toruloides DAO [3]): < 20 % of maximal

relative activity of the purified DAO on substrate (R. toruloides DAO [3]): < 20 % of maximal
Molecule: N[C@H](CC(=O)O)C(=O)O [D-aspartic acid]

Molecule: C[C@H](N)C(=O)O [L-alanine]
activity of the purified DAO on substrate (R. toruloides DAO [3]): No activity

activity of the purified DAO on substrate (R. toruloides DAO [3]): best substrate
Molecule: N[C@H](Cc1c[nH]c2ccccc12)C(=O)O [D-tryptophan]

relative activity of the purified DAO on substrate (R. toruloides DAO [3]): < 20 % of maximal
Molecule: N[C@H](CCC(=O)O)C(=O)O [D-glutamic acid]

activity of the purified DAO on substrate (R. toruloides DAO [3]): No activity
Molecule: N[C@@H](Cc1ccccc1)C(=O)O [L-phenylalanine]

relative activity of the purified DAO on substrate (R. toruloides DAO [3]): < 20 % of maximal
Molecule: C[C@H](O)[C@@H](N)C(=O)O [D-threonine]

Molecule: O=C(O)c1ccccc1 [benzoic acid]
enzyme inhibited in the presence of aromatic acid (R. toruloides DAO [1]): 49%

Molecule: CSCC[C@H](N)C(=O)O [L-methionine]
activity of the purified DAO on substrate (R. toruloides DAO [3]): No activity

B1: R. toruloides DAO (Rhodotorula toruloides) (protein)
chain: T1 sequence (P80324 25-368)
notes: made in house; host or cells: R. toruloides cells (native source, not recombinant)
Km [4]: 220 µM
Km [5]: 680 µM
Km [6]: 3400 µM
Km [7]: 180 µM
Km [8]: 650 µM
